From ChEMBL document CHEMBL1201862, “PubChem BioAssay data set” (2004)
One block for each compound: values may come before it. The source made the active and inactive calls.

Legend:
[1] = target: T1, Orexin/Hypocretin receptor type 1 (Homo sapiens, UniProt O43613); assay: Homogeneous Time Resolved Fluorescence (HTRF)-based cell-based high throughput dose response assay for antagonists of the orexin 1 receptor (OX1R; HCRTR1). [Related pubchem assays (depositor defined):AID434989, AID435008, AID463079, AID485270, AID492963, AID492964, AID492965, AID493232, AID504717, AID504718]; format: functional
T1 sequence (O43613 whole entry): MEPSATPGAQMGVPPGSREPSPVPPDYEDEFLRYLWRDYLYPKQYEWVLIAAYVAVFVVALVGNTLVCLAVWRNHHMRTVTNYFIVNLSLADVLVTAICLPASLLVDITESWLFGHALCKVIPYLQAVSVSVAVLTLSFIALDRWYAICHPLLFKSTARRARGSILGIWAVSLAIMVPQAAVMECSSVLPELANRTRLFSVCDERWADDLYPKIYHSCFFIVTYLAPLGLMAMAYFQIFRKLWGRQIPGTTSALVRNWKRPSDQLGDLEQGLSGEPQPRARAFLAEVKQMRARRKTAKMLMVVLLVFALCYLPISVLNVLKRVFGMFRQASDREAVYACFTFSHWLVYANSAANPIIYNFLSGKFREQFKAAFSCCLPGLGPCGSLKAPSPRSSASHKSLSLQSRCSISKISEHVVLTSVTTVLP

Orexin receptor type 2 [2] = target: T2, Orexin receptor type 2 (Homo sapiens, UniProt O43614); assay: Counterscreen assay for antagonists of the orexin 1 receptor (OX1R; HCRTR1): Homogeneous Time Resolved Fluorescence (HTRF)-based cell-based dose response assay for antagonists of the orexin 2 receptor (OX2R; HCRTR2), run by assay provider.; format: functional
T2 sequence (O43614 whole entry): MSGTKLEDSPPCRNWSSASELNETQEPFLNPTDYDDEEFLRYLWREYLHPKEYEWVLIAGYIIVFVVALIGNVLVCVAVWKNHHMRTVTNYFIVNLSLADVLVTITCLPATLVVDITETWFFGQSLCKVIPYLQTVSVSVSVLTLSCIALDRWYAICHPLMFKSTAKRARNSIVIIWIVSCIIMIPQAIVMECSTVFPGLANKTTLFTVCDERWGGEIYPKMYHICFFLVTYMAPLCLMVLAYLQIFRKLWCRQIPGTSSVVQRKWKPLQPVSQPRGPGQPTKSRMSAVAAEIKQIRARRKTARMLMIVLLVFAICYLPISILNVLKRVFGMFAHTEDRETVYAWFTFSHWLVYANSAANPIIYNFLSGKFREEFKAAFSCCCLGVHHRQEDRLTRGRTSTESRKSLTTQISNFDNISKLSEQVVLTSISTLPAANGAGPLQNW

[3] = target: T1, Orexin/Hypocretin receptor type 1; assay: Fluorescence-based cell-based high throughput dose response assay for antagonists of the orexin 1 receptor (OX1R; HCRTR1). [Related pubchem assays (depositor defined):AID434989, AID435008, AID463079, AID485270, AID492963, AID492964, AID492965, AID493232, AID504717, AID504718]; format: functional
Orexin receptor type 2 [4] = target: T2, Orexin receptor type 2; assay: Counterscreen assay for antagonists of the orexin 1 receptor (OX1R; HCRTR1): Fluorescence-based cell-based dose response assay for antagonists of the orexin 2 receptor (OX2R; HCRTR2), run by assay provider.; format: functional
[5] = (§1) Counterscreen for antagonists of the orexin 1 receptor (OX1R; HCRTR1): Fluorescence-based cell-based high throughput dose response assay to identify antagonists of the parental CHO cell line. [Related pubchem assays (depositor defined):AID434989, AID435008, AID463079, AID485270, AID492963, AID492964, AID492965, AID493232, AID504699, AID504701]; format: functional
CHO-K1 = assay: as §1, with “Homogeneous time resolved fluorescence (HTRF)-based” for “Fluorescence-based”, “cell-based” for “cell-based high throughput”, “CHO-K1” for “CHO”; format: functional; conditions: Cricetulus griseus;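 further: potency for inhibition of ATP-stimulated IP1 production as antagonists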
[6] = target: T3, Sentrin-specific protease 6 (Homo sapiens, UniProt Q9GZR1); assay: SAR Analysis of small molecule inhibitors of Sentrin-specific protease 6 (SENP6) using a Luminescent assay. [Related pubchem assays (depositor defined):AID2582, AID2599]; format: functional
T3 sequence (Q9GZR1 whole entry): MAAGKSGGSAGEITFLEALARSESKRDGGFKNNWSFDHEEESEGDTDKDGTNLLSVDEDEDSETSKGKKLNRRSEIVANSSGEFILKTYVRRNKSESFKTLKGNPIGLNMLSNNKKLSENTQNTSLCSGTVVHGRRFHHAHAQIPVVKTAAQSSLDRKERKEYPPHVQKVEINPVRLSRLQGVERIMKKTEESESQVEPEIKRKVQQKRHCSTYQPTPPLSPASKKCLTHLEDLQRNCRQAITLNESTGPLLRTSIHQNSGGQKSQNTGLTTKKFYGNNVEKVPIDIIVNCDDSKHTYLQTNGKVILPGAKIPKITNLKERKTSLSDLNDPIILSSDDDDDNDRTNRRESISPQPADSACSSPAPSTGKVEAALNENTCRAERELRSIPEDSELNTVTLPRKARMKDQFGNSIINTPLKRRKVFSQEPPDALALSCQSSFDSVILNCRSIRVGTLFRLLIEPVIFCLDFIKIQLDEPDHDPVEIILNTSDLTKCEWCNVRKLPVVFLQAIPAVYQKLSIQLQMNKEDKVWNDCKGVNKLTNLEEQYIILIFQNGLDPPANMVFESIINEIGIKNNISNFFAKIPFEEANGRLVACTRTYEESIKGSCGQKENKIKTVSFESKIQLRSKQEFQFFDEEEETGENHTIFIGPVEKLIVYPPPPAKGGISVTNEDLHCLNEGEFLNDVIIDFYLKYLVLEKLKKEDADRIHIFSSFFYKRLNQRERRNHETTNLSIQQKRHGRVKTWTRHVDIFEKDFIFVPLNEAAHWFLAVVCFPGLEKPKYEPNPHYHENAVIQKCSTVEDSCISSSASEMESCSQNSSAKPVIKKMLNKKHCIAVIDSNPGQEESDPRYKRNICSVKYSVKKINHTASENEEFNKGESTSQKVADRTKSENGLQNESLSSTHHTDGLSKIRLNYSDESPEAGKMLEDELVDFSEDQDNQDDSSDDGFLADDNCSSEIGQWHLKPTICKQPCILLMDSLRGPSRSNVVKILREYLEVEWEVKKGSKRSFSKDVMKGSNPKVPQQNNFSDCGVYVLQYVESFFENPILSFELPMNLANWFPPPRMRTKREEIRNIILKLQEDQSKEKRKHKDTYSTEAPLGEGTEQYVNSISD

[7] = target: T4, Sentrin-specific protease 7 (Homo sapiens, UniProt Q9BQF6); assay: SENP7 protease inhibitors, SAR follow-up, biochemical, luminescence (AID 504497); format: functional
T4 sequence (Q9BQF6 whole entry): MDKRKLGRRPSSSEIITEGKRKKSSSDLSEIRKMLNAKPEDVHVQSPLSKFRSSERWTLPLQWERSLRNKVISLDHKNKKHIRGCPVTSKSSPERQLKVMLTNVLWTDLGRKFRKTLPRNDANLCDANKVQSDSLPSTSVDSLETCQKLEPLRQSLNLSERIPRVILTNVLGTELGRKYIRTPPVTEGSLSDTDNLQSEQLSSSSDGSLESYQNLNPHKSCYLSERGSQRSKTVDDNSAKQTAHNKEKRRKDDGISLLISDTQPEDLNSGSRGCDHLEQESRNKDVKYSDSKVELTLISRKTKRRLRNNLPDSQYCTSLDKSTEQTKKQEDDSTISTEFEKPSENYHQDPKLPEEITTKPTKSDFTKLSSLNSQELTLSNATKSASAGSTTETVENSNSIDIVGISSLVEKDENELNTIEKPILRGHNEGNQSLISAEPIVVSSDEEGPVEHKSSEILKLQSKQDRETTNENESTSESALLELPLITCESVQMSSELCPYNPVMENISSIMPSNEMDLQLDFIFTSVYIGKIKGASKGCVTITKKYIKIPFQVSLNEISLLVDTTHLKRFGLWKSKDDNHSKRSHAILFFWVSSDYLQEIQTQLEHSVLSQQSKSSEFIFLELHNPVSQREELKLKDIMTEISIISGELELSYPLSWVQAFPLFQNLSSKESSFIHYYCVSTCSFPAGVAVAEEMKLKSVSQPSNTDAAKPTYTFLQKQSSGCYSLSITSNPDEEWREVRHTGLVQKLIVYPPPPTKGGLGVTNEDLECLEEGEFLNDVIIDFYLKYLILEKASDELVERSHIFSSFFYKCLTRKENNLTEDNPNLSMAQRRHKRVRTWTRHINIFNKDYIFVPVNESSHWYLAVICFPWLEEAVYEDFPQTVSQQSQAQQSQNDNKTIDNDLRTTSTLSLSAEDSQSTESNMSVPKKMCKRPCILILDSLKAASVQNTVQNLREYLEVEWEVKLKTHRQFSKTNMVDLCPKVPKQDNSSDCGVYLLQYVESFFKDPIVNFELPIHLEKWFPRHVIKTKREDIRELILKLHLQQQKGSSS

Caspase-3 = target: T5, Caspase-3 (Homo sapiens, UniProt P42574); assay: SAR Analysis of small molecule inhibitors of Sentrin-specific proteases (SENPs) using a Caspase-3 Selectivity assay. [Related pubchem assays (depositor defined):AID2540, AID2599, AID434973, AID489001]; format: functional
T5 sequence (P42574 whole entry): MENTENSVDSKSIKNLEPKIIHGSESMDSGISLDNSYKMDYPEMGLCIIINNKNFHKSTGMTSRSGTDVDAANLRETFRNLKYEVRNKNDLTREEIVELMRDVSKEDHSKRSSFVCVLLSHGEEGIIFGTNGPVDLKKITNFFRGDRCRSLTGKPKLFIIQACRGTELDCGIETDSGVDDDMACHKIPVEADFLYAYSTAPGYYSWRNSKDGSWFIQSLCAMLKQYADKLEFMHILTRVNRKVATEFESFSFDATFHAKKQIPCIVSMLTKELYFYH

[8] = target: T6, Sentrin-specific protease 8 (Homo sapiens, UniProt Q96LD8); assay: SENP8 protease inhibitors, SAR follow-up, biochemical, luminescence (AID 504501); format: functional
T6 sequence (Q96LD8 whole entry): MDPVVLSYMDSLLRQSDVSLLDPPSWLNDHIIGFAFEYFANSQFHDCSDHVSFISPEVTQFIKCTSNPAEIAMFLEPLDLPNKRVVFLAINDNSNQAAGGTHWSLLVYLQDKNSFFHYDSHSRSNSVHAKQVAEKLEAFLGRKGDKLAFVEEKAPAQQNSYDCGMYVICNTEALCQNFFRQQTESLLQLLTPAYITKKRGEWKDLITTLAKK

HEK293 [9] = assay: HEK cell cytotoxicity by LDH release, dose response, cytotoxicity control for IDE activator project, fluorescence, HEK cells (AID 588440); format: functional, cell-based; conditions: Homo sapiens;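 further: cytotoxicity by LDH release measuring loss of membrane integrity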
Insulin-degrading enzyme [10] = target: T7, Insulin-degrading enzyme (Homo sapiens, UniProt P14735); assay: activators of recombinant IDE enzyme, dose response, counter-screen for IDE activator project, biochemical, fluorescence polarization (AID 588681)
T7 sequence (P14735 whole entry): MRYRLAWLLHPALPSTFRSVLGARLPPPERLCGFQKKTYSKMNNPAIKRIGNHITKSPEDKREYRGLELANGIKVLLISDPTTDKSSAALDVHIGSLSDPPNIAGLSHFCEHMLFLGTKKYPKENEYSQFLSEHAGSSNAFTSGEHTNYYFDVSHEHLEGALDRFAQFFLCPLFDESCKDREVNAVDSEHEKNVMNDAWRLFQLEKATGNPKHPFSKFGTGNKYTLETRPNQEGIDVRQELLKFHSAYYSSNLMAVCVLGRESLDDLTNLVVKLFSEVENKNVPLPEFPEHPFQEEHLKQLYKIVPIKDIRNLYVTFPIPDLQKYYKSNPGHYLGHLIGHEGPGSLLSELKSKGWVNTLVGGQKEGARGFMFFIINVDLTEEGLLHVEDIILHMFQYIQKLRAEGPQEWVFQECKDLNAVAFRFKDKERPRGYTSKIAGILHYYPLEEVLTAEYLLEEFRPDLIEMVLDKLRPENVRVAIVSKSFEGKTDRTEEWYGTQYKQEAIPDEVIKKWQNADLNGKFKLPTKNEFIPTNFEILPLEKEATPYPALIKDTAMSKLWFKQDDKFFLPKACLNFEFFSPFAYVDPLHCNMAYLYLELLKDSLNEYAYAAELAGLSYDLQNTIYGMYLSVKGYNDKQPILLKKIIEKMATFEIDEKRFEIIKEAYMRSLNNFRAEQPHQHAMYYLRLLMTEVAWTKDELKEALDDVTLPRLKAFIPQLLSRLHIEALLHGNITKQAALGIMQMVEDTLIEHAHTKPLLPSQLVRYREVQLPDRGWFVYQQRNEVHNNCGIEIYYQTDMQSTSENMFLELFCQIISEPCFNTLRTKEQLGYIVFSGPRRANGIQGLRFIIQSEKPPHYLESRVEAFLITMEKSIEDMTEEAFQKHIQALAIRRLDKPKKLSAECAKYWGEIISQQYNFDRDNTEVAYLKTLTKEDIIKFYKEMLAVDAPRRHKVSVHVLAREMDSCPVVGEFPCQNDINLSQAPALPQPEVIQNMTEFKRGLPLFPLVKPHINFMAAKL

HEK293 [11] = assay: optical interference in Abeta FP readout, dose response, artefact control for IDE activator project, biochemical, fluorescence polarization (AID 588442); format: functional, cell-based; conditions: Homo sapiens
Insulin-degrading enzyme [12] = target: T7, Insulin-degrading enzyme; assay: activators of endogenous IDE in HEK cells, dose response, cell-based, fluorescence polarization (AID 588439); format: functional

SMILES: COC(=O)c1ccccc1NC(=O)CSc1nc(O)cc(=O)n1C1CCCC1
IC50 [1]: 0.137 µM (active)
IC50 (Orexin receptor type 2 [2]): > 50 µM (inactive)
IC50 [3]: 4.86 µM (active)
IC50 (Orexin receptor type 2 [4]): 56.2 µM (inactive)
IC50 [5]: > 49.8 µM (inactive)
IC50 (CHO-K1): > 66.2 µM (inactive)

IC50 [6]: > 99 µM (inactive)
IC50 [7]: > 99 µM (inactive)
IC50 (Caspase-3): > 99 µM (inactive)
SMILES: Fc1cc(F)cc(-c2noc(/C=C/c3ccccc3)n2)c1
IC50 [8]: > 99 µM (inactive)

IC50 [6]: > 99 µM (inactive)
IC50 [7]: > 99 µM (inactive)
IC50 (Caspase-3): > 99 µM (inactive)
SMILES: COc1ccc(C2C(C#N)=C(/N=C/N(C)C)Oc3c2c(C)nn3-c2ccccc2)cc1 (stereo not drawn)
IC50 [8]: > 99 µM (inactive)

SMILES: C=CCN1C(=O)c2ccc(C(=O)OCC(=O)N(CC)C3CCS(=O)(=O)C3)cc2C1=O (stereo not drawn)
IC50 (HEK293 [9]): > 89.2 µM (inactive)
EC50 (Insulin-degrading enzyme [10]): > 54.7 µM (inactive)
EC50 (HEK293 [11]): > 54.7 µM (inactive)
EC50 (Insulin-degrading enzyme [12]): > 54.7 µM (inactive)
